This note sets out measurements from patent US20240123015A1, “COMPOSITION FOR STRENGTHENING, DEVELOPING, DIFFERENTIATING, OR REGENERATING MUSCLE, OR PREVENTING, AMELIORATING, OR TREATING MUSCLE LOSS OR MUSCLE FATIGUE COMPRISING SCHIZONEPETA TENUIFOLIA EXTRACT AS EFFECTIVE COMPONENT” (KOREA INSTITUTE OF ORIENTAL MEDICINE, priority 2021, published 2024).

The subject of series [1] is BALB/c mice. Kind of series: Fatigue-related factors (LDH, AST, ALT) in blood serum. The format is in vivo, mouse. Particulars: dexamethasone 25 mg/kg.
Method: The extract prepared as a dry powder was dissolved in physiological saline and used for the administration. After two weeks of oral administration of the test sample, the evaluation was made by Rotarod test and also in terms of a change in fatigue-related factors in the blood.
At the end of the 1-hour time point after the oral administration of each test material for 2 weeks, the Rotarod test was carried out, and blood samples were collected immediately from the animal heart. The collected blood was centrifuged at 3,000 rpm, 4° C. for 15 minutes to separate the blood serum, which was then stored at −70° C. until further analysis. Thereafter, concentrations of lactate dehydrogenase (LDH), aspartate aminotransferase (AST), and alanine aminotransferase (ALT) in the blood serum were measured by using a biochemical analyzer (AU480 chemistry analyzer, Beckman Coulter Inc., Brea, CA, USA).
The test system of series [2] is BALB/c mice. The series can be described thus: Rotarod test in dexamethasone-induced animal model of fatigue. In kind it is in vivo, mouse. Particulars: positive control 50 mg/kg, 2 weeks, 20 rpm. The protocol: A 6-week-old male BALB/c mice was purchased from Orient Bio Inc. (Seongnam, South Korea) and used them for the test. The test animals were acclimated for one week in a breeding environment with a temperature of 25±2° C., humidity of 50±5%, and a 12-hour light-dark cycle, while being provided with ad libitum access to a standard diet (AIN-76A diet) and water. After the acclimation period, the animals were used for the test. The animal test of the present invention was carried out after obtaining an approval of Korea Institute of Oriental Medicine Institutional Animal Care and Use Committee.
The acclimated mice were randomly assigned to different groups: the normal group (Normal), the group administered with dexamethasone group (25 mg/kg), the group administered with Schizonepeta tenuifolia extract (HG, 200 mg/kg), and the positive control group administered with oxymetholone (50 mg/kg). Each group consisted of 6 mice. […]
Mouse was orally administered for 2 weeks with each test material, and then placed on the rod of a Rotarod apparatus and rotated at a speed of 20 rpm. The time until the mouse fell off the rod was then measured. […] The mean value of the three measurements for each animal was taken as the test result value, and the mean and standard deviation were calculated for each group of the six animals.
(In general: Falling from the rotarod earlier than controls is read as motor impairment.)

The next series concerns C2C12 cells. Kind of series: Viability recovery of muscle cells under H2O2 oxidative stress (CCK8). The format is cell-based, mouse. The following applies: H2O2 250 μM alone; compared to control group. As for the experimental part:
Mouse myoblast cell line (i.e., C2C12 cells) was purchased from ATCC (Manassas, VA, USA) and cultured at conditions of 37° C. and 5% CO2 in DMEM medium containing 10% fetal bovine serum. Once the cultured cells reached 80% confluency, the medium was replaced with other DMEM medium (Gibco) containing 2% horse serum, 100 units/ml of penicillin, and 100 μg/ml of streptomycin to induce cell differentiation. The cells were cultured for 5 days after replacing the medium to induce cell differentiation. The culture medium was replaced with fresh medium every 2 days during the differentiation process. To induce muscular atrophy, the cells were treated with H2O2 at a final concentration of 250 μM. Concurrently, the cells were treated with Schizonepeta tenuifolia extract obtained from Example 1 at a concentration of 100 μg/ml. After treating the cells with Schizonepeta tenuifolia extract and culturing them for 24 hours, the medium was replaced with fresh medium containing 10% CCK8 (Dojindo) solution. After incubating for 2 hours, the absorbance was measured at 450 nm to evaluate cell viability. Each sample was measured three times, and the mean value was calculated.

Turning to `C[C@@H]1C[C@H]2[C@@H]3CCC4=CC(=O)C=C[C@]4(C)[C@@]3(F)[C@@H](O)C[C@]2(C)[C@@]1(O)C(=O)CO` [dexamethasone], the “LDH level in blood serum” value in the series with BALB/c mice [1] was “elevated levels”. For the same molecule, in the series with BALB/c mice [1] (compared to normal group), the “ALT level in blood serum” value was “statistically significant increase” and the “AST level in blood serum” value is reported as “statistically significant increase”.

As for `C[C@]12C/C(=C/O)C(=O)C[C@@H]1CC[C@@H]1[C@@H]2CC[C@@]2(C)[C@H]1CC[C@]2(C)O` [oxymetholone], the “hanging time on the Rotarod” value in the series with BALB/c mice [2] is recorded as “statistically significant increase in the time spent hanging on the Rotarod”.

`OO` [H2O2]: the cell viability result in the series with C2C12 cells was “statistically significant decrease in cell viability”.
